Values quoted from earlier work, collected in patent publication US20070117788A1, “Combination of a dopamine D2-receptor agonist and tiotropium or a derivative therof for treating obstructive airways and other inflammatory diseases” (Boehringer Ingelheim Pharma GmbH & Co. KG, priority 2001, published 2007).

Key:
[1] = test system: antigen-challenged pig
[2] = test system: δ and ε protein kinase C; conditions: with ethanol, neural cells in culture

Row | SMILES | anti-allergic effect [1] | rhinorrhea [1] | translocation of δ and ε protein kinase C [2]
1 | CCCn1c(=O)c2c(C)nc(CC)n2c2nc(OC)ccc21 [Example D-22888] | strong anti-allergic affect | inhibit rhinorrhea | –
2 | Br.CCCN1CCc2cc(O)cc3c2[C@H]1Cc1ccc(O)c(O)c1-3 [R(−)-2,10,11-trihydroxy-N-propyl-noraporphine hydrobromide] | – | – | acts synergistically with ethanol to cause translocation
